Measured values taken from patent US9464082B2, “Aryl and arylalkyl substituted pyrazolyl and pyrimidinyl tricyclic enones as antioxidant inflammation modulators” (AbbVie Inc., priority 2014, dated 2016).

Test system: IFNγ-Induced NO Production
Experiment: Nitric Oxide Suppression Assay (Suppression of IFNγ-Induced NO Production)
Format: cell-based
Details: RAW264.7; RAW 264.7 mouse macrophage cells; 2 hour pre-treatment with compound (3 μM to 0.3 nM, 10 point curve); 20 ng/mL interferon gamma, ~18 hour; Griess detection; n=2-3 in duplicates
Procedure: RAW 264.7, a mouse macrophage cell line, was obtained from American Type Culture Collection (Manassas Va.) and maintained in the log phase of growth in Dulbecco's Modified Eagle's Medium (DMEM), 10% heat inactivated fetal calf serum and 100 units/mL antibiotic-antimycotic (AA). Cells were cultured and maintained in a humidified incubator at 37° C. under 5% CO2 and 95% air. Cells were sub-cultured every 3 days by scraping and were not used beyond passage 20. All cell culture supplies were obtained from Life Technologies (Grand Island, N.Y.).
RAW 264.7 cells were plated 1 day in advance of experiment at a concentration of 80,000 cells/well onto CellBIND® 96 well plates (Corning, N.Y.) in a total volume of 100 μL. The next day, pre-treat cells with compounds (from 3 μM to 0.3 nM serially diluted in a 10 point curve) from a 10× stock by adding 10 μL per well in complete DMEM media containing 10% fetal calf serum. The plates were centrifuged for 3 minutes at 400×g at room temperature followed by 2 hour incubation at 37° C. The cells were then incubated overnight at 37° C. with 10 μL of the insult, interferon gamma (R&D Systems, Minneapolis, Minn.), from a 10× stock for a final concentration of 20 ng/mL. The plates were centrifuged for 3 minutes at 400×g at room temperature followed by ˜18 hour incubation at 37° C. The following day, transfer 50 μL cell culture supernatant from each well into a clear bottom 96 well plate and follow the instructions from Promega's Griess Detection Kit #G2930 (Madison, Wis.) which involves the addition of 50 μL of the provided sulfanilamide solution for a 5-10 minute incubation at room temperature. Next add 50 μL of the provided N-1-napthylethylenediamine dihydrochloride (NED) solution for a 5-10 minute incubation at room temperature and protected from light. If any air bubbles were introduced into the well, the plates need to be centrifuged for 5 minutes at 400×g at room temperature to avoid interference with absorbance readings. The plates were read for absorbance within 30 minutes with a filter between 520 nm and 550 nm.
For the ability of compounds to suppress the increase in nitric oxide release, the percent maximal intensity of nitric oxide detected in each well was normalized to that induced by the peak value for 20 ng/mL of interferon gamma alone and plotted against the compound concentration to calculate IC50 values and to control for plate-to-plate variability. Concentration-response data were analyzed using GraphPad Prism (San Diego, Calif.); the IC50 values were derived from a single curve fit to the mean data of n=2-3, in duplicates.
All compounds were dissolved in dimethyl sulfoxide at 10 mM stock solutions and tested at a concentration that the dimethyl sulfoxide levels never exceeded 1%.

| Structure (SMILES) | IC50 |
| --- | --- |
| C[C@@H]1C(=O)C(C#N)=C[C@]2(c3ccccc3)c3nc(-c4cc(Br)ccc4O)ncc3CC[C@@H]12 [Example 111, (6aS,7S,10aR)-2-(5-bromo-2-hydroxyphenyl)-7-methyl-8-oxo-10a-phenyl-5,6,6a,7,8,10a-hexahydrobenzo[h]quinazoline-9-carbonitrile] | 12.3 nM |
| COc1cccc([C@]23C=C(C#N)C(=O)[C@@H](C)[C@@H]2CCc2cn(C)nc23)c1 (racemic) [Example 4, rac-(5aS,6S,9aR)-9a-(3-methoxyphenyl)-2,6-dimethyl-7-oxo-4,5,5a,6,7,9a-hexahydro-2H-benzo[g]indazole-8-carbonitrile] | 114 nM |
| COC(=O)n1cc(-c2nc(C)nc3c2CC[C@H]2[C@H](C)C(=O)C(C#N)=C[C@]32c2ccccc2)cn1 [Example 98, methyl 4-[(6aS,7S,10aR)-9-cyano-2,7-dimethyl-8-oxo-10a-phenyl-5,6,6a,7,8,10a-hexahydrobenzo[h]quinazolin-4-yl]-1H-pyrazole-1-carboxylate] | 1.5 nM |
| C[C@@H]1C(=O)C(C#N)=C[C@]2(Cc3ccccc3)c3nn(C)cc3CC[C@@H]12 (racemic) [Example 162, rac-(5aS,6S,9aR)-9a-benzyl-2,6-dimethyl-7-oxo-4,5,5a,6,7,9a-hexahydro-2H-benzo[g]indazole-8-carbonitrile] | 231 nM |
| COC(=O)c1cccc([C@]23C=C(C#N)C(=O)[C@@H](C)[C@@H]2CCc2cnc(-c4ccccc4)nc23)c1 [Example 99, methyl 3-[(6aS,7S,10aR)-9-cyano-7-methyl-8-oxo-2-phenyl-6,6a,7,8-tetrahydrobenzo[h]quinazolin-10a(5H)-yl]benzoate] | 23.4 nM |
| Cc1nc(Nc2cccnc2)c2c(n1)[C@@]1(c3ccccc3)C=C(C#N)C(=O)[C@@H](C)[C@@H]1CC2 [Example 147, (6aS,7S,10aR)-2,7-dimethyl-8-oxo-10a-phenyl-4-(pyridin-3-ylamino)-5,6,6a,7,8,10a-hexahydrobenzo[h]quinazoline-9-carbonitrile] | 48 nM |
| Cc1nc(-c2cccc(O)c2)c2c(n1)[C@@]1(c3ccccc3)C=C(C#N)C(=O)[C@@H](C)[C@@H]1CC2 [Example 109, (6aS,7S,10aR)-4-(3-hydroxyphenyl)-2,7-dimethyl-8-oxo-10a-phenyl-5,6,6a,7,8,10a-hexahydrobenzo[h]quinazoline-9-carbonitrile] | 2.87 nM |
| C[C@@H]1C(=O)C(C#N)=C[C@]2(Cc3ccccc3)c3c(cnn3C)CC[C@@H]12 (racemic) [Example 163, rac-(5aS,6S,9aR)-9a-benzyl-1,6-dimethyl-7-oxo-4,5,5a,6,7,9a-hexahydro-1H-benzo[g]indazole-8-carbonitrile] | 406 nM |
| Cc1nc(-c2cncnc2)c2c(n1)[C@@]1(c3ccc(F)cc3)C=C(C#N)C(=O)[C@@H](C)[C@@H]1CC2 [Example 68, (6aS,7S,10aR)-10a-(4-fluorophenyl)-2,7-dimethyl-8-oxo-4-(pyrimidin-5-yl)-5,6,6a,7,8,10a-hexahydrobenzo[h]quinazoline-9-carbonitrile] | 33.6 nM |
| Cc1nc(-c2cnc(O)c(Br)c2)c2c(n1)[C@@]1(c3ccccc3)C=C(C#N)C(=O)[C@@H](C)[C@@H]1CC2 [Example 132, (6aS,7S,10aR)-4-(5-bromo-6-hydroxypyridin-3-yl)-2,7-dimethyl-8-oxo-10a-phenyl-5,6,6a,7,8,10a-hexahydrobenzo[h]quinazoline-9-carbonitrile] | 387 nM |
| C[C@@H]1C(=O)C(C#N)=C[C@]2(c3ccccc3)c3nc(N4CCOCC4)ncc3CC[C@@H]12 [Example 19, (6aS,7S,10aR)-7-methyl-2-(morpholin-4-yl)-8-oxo-10a-phenyl-5,6,6a,7,8,10a-hexahydrobenzo[h]quinazoline-9-carbonitrile] | 36.2 nM |
| C[C@@H]1C(=O)C(C#N)=C[C@]2(c3ccccc3)c3n[nH]c(-c4cnn(-c5ccncc5)c4)c3CC[C@@H]12 [Example 159, (5aS,6S,9aR)-6-methyl-7-oxo-9a-phenyl-3-[1-(pyridin-4-yl)-1H-pyrazol-4-yl]-4,5,5a,6,7,9a-hexahydro-2H-benzo[g]indazole-8-carbonitrile] | 33.8 nM |
| C[C@@H]1C(=O)C(C#N)=C[C@]2(c3ccccc3)c3nn(C)c(-c4ccnnc4)c3CC[C@@H]12 [Example 97, (5aS,6S,9aR)-2,6-dimethyl-7-oxo-9a-phenyl-3-(pyridazin-4-yl)-4,5,5a,6,7,9a-hexahydro-2H-benzo[g]indazole-8-carbonitrile] | 15 nM |
| COc1nc(-c2ccccc2)nc2c1CC[C@H]1[C@H](C)C(=O)C(C#N)=C[C@]21c1ccccc1 (racemic) [Example 8, rac-(6aS,7S,10aR)-4-methoxy-7-methyl-8-oxo-2,10a-diphenyl-5,6,6a,7,8,10a-hexahydrobenzo[h]quinazoline-9-carbonitrile] | 96.3 nM |
| C[C@@H]1C(=O)C(C#N)=C[C@]2(c3ccc(O)cc3)c3n[nH]cc3CCC12 (stereo partly drawn) [Example 72, (6S,9aR)-9a-(4-hydroxyphenyl)-6-methyl-7-oxo-4,5,5a,6,7,9a-hexahydro-2H-benzo[g]indazole-8-carbonitrile] | 37.9 nM |
| C[C@@H]1C(=O)C(C#N)=C[C@]2(c3cccc(C(N)=O)c3)c3ncncc3CC[C@@H]12 [Example 61, 3-[(6aS,7S,10aR)-9-cyano-7-methyl-8-oxo-6,6a,7,8-tetrahydrobenzo[h]quinazolin-10a(5H)-yl]benzamide] | 591 nM |
| C[C@@H]1C(=O)C(C#N)=C[C@]2(c3cccc(F)c3)c3ncncc3CC[C@@H]12 [Example 55, (6aS,7S,10aR)-10a-(3-fluorophenyl)-7-methyl-8-oxo-5,6,6a,7,8,10a-hexahydrobenzo[h]quinazoline-9-carbonitrile] | 11.4 nM |
| C[C@@H]1C(=O)C(C#N)=C[C@]2(c3ccccc3)c3nn(C)c(-c4cccc(Br)c4)c3CC[C@@H]12 [Example 148, (5aS,6S,9aR)-3-(3-bromophenyl)-2,6-dimethyl-7-oxo-9a-phenyl-4,5,5a,6,7,9a-hexahydro-2H-benzo[g]indazole-8-carbonitrile] | 31.5 nM |
| C[C@@H]1C(=O)C(C#N)=C[C@]2(c3ccccc3)c3n[nH]c(-c4cnn(CCO)c4)c3CC[C@@H]12 [Example 117, (5aS,6S,9aR)-3-[1-(2-hydroxyethyl)-1H-pyrazol-4-yl]-6-methyl-7-oxo-9a-phenyl-4,5,5a,6,7,9a-hexahydro-2H-benzo[g]indazole-8-carbonitrile] | 17.4 nM |
| C[C@@H]1C(=O)C(C#N)=C[C@]2(c3ccccc3)c3nc(-c4c(F)cccc4F)ncc3CC[C@@H]12 [Example 74, (6aS,7S,10aR)-2-(2,6-difluorophenyl)-7-methyl-8-oxo-10a-phenyl-5,6,6a,7,8,10a-hexahydrobenzo[h]quinazoline-9-carbonitrile] | 9.26 nM |
| C[C@@H]1C(=O)C(C#N)=C[C@]2(c3ccc(C(=O)O)cc3)c3ncncc3CC[C@@H]12 [Example 66, 4-[(6aS,7S,10aR)-9-cyano-7-methyl-8-oxo-6,6a,7,8-tetrahydrobenzo[h]quinazolin-10a(5H)-yl]benzoic acid] | 809 nM |
| COc1ncc(-c2cccc(-c3c4c(nn3C)[C@@]3(c5ccccc5)C=C(C#N)C(=O)[C@@H](C)[C@@H]3CC4)c2)cn1 [Example 153, (5aS,6S,9aR)-3-[3-(2-methoxypyrimidin-5-yl)phenyl]-2,6-dimethyl-7-oxo-9a-phenyl-4,5,5a,6,7,9a-hexahydro-2H-benzo[g]indazole-8-carbonitrile] | 6.46 nM |
| C[C@@H]1C(=O)C(C#N)=C[C@]2(c3cccc(C(=O)Nc4ccccc4)c3)c3ncncc3CC[C@@H]12 [Example 95, 3-[(6aS,7S,10aR)-9-cyano-7-methyl-8-oxo-6,6a,7,8-tetrahydrobenzo[h]quinazolin-10a(5H)-yl]-N-phenylbenzamide] | 15.5 nM |
| C[C@@H]1C(=O)C(C#N)=C[C@]2(c3ccccc3)c3nn(C)cc3CC[C@@H]12 [Example 52, (5aS,6S,9aR)-2,6-dimethyl-7-oxo-9a-phenyl-4,5,5a,6,7,9a-hexahydro-2H-benzo[g]indazole-8-carbonitrile] | 53.2 nM |
| C[C@@H]1C(=O)C(C#N)=C[C@]2(c3ccccc3)c3nn(C(=O)c4cscn4)cc3CC[C@@H]12 [Example 40, (5aS,6S,9aR)-6-methyl-7-oxo-9a-phenyl-2-(1,3-thiazol-4-ylcarbonyl)-4,5,5a,6,7,9a-hexahydro-2H-benzo[g]indazole-8-carbonitrile] | 45.4 nM |
